One block for each compound: values may come before it.
Assay: Pharmacokinetic study of celecoxib implants in Wistar rats

- concentration of HO-celecoxib in peritoneal liquid, intraperitoneal vs subcutaneous implant (peritoneal liquid): tendency to a higher concentration
- concentration of HO-celecoxib in serum, intraperitoneal vs subcutaneous implant (serum): No differences
SMILES: NS(=O)(=O)c1ccc(-n2nc(C(F)(F)F)cc2-c2ccc(CO)cc2)cc1 [HO-celecoxib]
- presence of the metabolite HO-celecoxib after implantation (celecoxib implant): present in the rats during more than two years

- concentration of HOOC-celecoxib in the serum and in the PF, intraperitoneal vs subcutaneous implant (serum and peritoneal liquid): No differences
SMILES: NS(=O)(=O)c1ccc(-n2nc(C(F)(F)F)cc2-c2ccc(C(=O)O)cc2)cc1 [HOOC-celecoxib]
- presence of the metabolite HOOC-celecoxib after implantation (celecoxib implant): present in the rats during more than two years

- metabolism of celecoxib (after implantation of celecoxib implant): metabolized in rats
SMILES: Cc1ccc(-c2cc(C(F)(F)F)nn2-c2ccc(S(N)(=O)=O)cc2)cc1 [celecoxib, reference compound]
